The values below come from patent US20260174786A1, “A NITROGEN-CONTAINING SPIROCYCLIC COMPOUND, PHARMACEUTICAL COMPOSITION AND USE THEREOF” (Prime Gene Therapeutics Co., Ltd., priority 2022, published 2026).

The target of one data set is T1, hTRPV3 (Homo sapiens, UniProt Q8NET8).
T1 construct: expressed in transfected cells; host or cells: HEK-293
T1 sequence (Q8NET8 1-790): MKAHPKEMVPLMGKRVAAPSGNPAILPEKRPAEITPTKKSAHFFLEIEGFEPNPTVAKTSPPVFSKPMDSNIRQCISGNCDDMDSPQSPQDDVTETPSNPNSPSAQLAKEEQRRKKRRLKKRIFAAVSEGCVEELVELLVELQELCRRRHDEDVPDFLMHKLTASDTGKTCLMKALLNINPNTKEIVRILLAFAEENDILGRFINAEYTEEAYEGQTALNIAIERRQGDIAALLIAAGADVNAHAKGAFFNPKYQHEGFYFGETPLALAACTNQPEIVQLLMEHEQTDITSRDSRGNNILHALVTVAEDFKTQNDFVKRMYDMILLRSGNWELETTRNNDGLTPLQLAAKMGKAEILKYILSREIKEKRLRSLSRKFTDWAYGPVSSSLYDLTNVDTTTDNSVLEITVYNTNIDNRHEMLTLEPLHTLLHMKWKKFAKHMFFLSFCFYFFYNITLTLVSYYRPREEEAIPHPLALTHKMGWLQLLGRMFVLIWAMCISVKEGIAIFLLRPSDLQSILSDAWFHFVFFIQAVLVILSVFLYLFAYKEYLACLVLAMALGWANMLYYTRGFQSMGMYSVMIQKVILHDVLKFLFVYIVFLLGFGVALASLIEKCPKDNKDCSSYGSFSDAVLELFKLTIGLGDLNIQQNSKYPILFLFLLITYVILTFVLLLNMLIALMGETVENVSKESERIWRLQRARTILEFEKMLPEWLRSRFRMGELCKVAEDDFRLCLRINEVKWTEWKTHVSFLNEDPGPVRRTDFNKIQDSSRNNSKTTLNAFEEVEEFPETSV
As to the kind of experiment: Whole cell patch clamp inhibition rate test on HEK-293 cells instantaneously expressing TRPV3. Format: cell-based. Particulars: HEK293; hTRPV3, single concentration 0.3 μM. In a few lines: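 HEK-293 cells transiently transfected with TRPV3, recorded next-but-one day by whole-cell patch clamp at room temperature: holding −80 mV, ramp −100 to 100 mV over 100 ms every 5 s, peak current monitored. Ascending concentrations perfused, 5 min each; each cell its own control, at least two cells per concentration.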

Data set [1] is described as follows: Stability assessment of compounds at room temperature under 92.5% humidity (LC-MS). Format: physicochemical. Conditions: 92.5% humidity (open), after 5 days. As for the experimental part: Taking the compound of Example 21 and KM-001-E1 in WO2021154966A1 as examples, the stability thereof was compared:
Compound of Example 21 and KM-001-E1 were accurately weighed and placed in penicillin bottles, and placed at room temperature under 92.5% humidity (open) conditions for 5-10 days to investigate the stability of the compounds.
• instrument: Thermo U3000-ISQEC • column: Xtimate UHPLC C18 1.8 μm 4.6*50 mm • Column temperature: 35° C. • wavelength: 210 nm, 254 nm • mobile phase A: 0.05% formic acid aqueous solution; mobile phase B: 0.05% formic acid acetonitrile; gradient: 30% B 0-1.2 min, 95% B 1.2-3.3 min, 30% B 3.3-4.5 min;
Analyzing the degradation impurities of each compound under 92.5% humidity conditions using LC-MS: The main impurities in Example 21 had m/z 427.17, with a retention time of 2.55 minutes. After being left for 10 days, the peak area proportion was only 0.3%; The main impurities in KM-001-E1 has m/z=431.14 and m/z=415.16, with retention times of 2.31 minutes and 2.64 minutes, respectively. […] Based on LC-MS and NMR data analysis, it can be inferred that the main impurities produced in Example 21 are ketones, while the main impurities produced in KM-001-E1 are aldehydes and carboxylic acids.

Molecules are shown by their SMILES.

`CC(C)c1ccccc1-c1ccc2c(c1)C(O)CC21CCN(C(F)(F)c2ccc(F)cn2)C1` (centres unmarked) [Example 146, 1′-(difluoro(5-fluoropyridin-2-yl)methyl)-5-(2-isopropylphenyl)-2,3-dihydrospiro[indene-1,3′-pyrrolidine]-3-ol]: the inhibition at 0.3 µM at hTRPV3 was < 25%.
Take `OC1CC2(CCN(c3cnc4cc(Cl)ccn34)C2)c2ccc(-c3ccccc3C3CC3)cc21` (centres unmarked) [Example 152, 5-(2-cyclopropylphenyl)-1′-(7-chloroimidazo[1,2-a]pyridin-3-yl)-2,3-dihydrospiro[indene-1,3′-pyrrolidine]-3-ol]: at hTRPV3, the inhibition at 0.3 µM fell in the range of 70 to 100%.
The same measure, in the same setting: then `OC1CC2(CCN(c3cnc4cc(F)ccn34)C2)c2ccc(-c3ccccc3C3CC3)cc21` (centres unmarked) [Example 153, 5-(2-cyclopropylphenyl)-1′-(7-fluoroimidazo[1,2-a]pyridin-3-yl)-2,3-dihydrospiro[indene-1,3′-pyrrolidine]-3-ol], with 70 to 100%; and `O=C1C[C@@]2(CCN(C(=O)c3ccc(F)cn3)C2)c2ccc(-c3ccccc3C3CC3)cc21` [Example 162, (S)-5-(2-cyclopropylphenyl)-1′-(5-fluoropyridoyl)spiro[indene-1,3′-pyrrolidine]-3(2H)-one], with < 25%; and `O=C(c1ccc(F)cn1)N1CCC2(CC(O)c3cc(-c4ccc(F)cc4C4CC4)ccc32)C1` (centres unmarked) [Example 163, (5-(2-cyclopropyl-4-fluorophenyl)-3-hydroxy-2,3-dihydrospiro[indene-1,3′-pyrrolidine]-1′-yl)(5-fluoropyridin-2-yl) ketone], with 70 to 100%.
On the same count and under the same terms, the value for `CC(C)(C#N)c1ccccc1-c1ccc2c(c1)C(O)CC21CCN(C(=O)c2ccc(F)cn2)C1` (centres unmarked) [Example 164, 2-(2-(1′-(5-fluoropyridoyl)-3-hydroxy-2,3-dihydrospiro[indene-1,3′-pyrrolidine]-5-yl)phenyl)-2-methyl propionitrile] was 50 to 70%.
Take `O=C(c1ccc(F)cn1)N1CC[C@H](c2ccc(-c3ccccc3C3CC3)cc2CO)C1` [KM-001-E1]: in data set [1], the “peak area proportion of main impurity (m/z=415.16)” value turned out to be 2.43% and the “peak area proportion of main impurity (m/z=431.14)” value turned out to be 2.48%.
